How the values were obtained:
[1] = Reversal of P-gp-mediated multidrug resistance in human KBV cells assessed as potentiation of paclitaxel-induced cytotoxicity by measuring paclitaxel IC50 at 5 uM after 72 hrs by MTT assay (Rvb = 1353.98 +/- 303.33 nM)
[2] = Reversal of P-gp-mediated multidrug resistance in human KBV cells assessed as potentiation of paclitaxel-induced cytotoxicity by measuring paclitaxel IC50 at 10 uM after 72 hrs by MTT assay (Rvb = 1353.98 +/- 303.33 nM)

SMILES	IC50 [1]	IC50 [2]
CC(C)(O)[C@H]1CC[C@@](C)([C@H]2CC[C@]3(C)[C@@H]2[C@H](O)C[C@@H]2[C@@]4(C)CC[C@H](N)C(C)(C)[C@@H]4CC[C@]23C)O1	135 nM	48 nM
CC(C)(C)OC(=O)NCCCCCC(=O)N[C@H]1CC[C@]2(C)[C@H]3C[C@@H](O)[C@@H]4[C@@H]([C@]5(C)CC[C@H](C(C)(C)O)O5)CC[C@@]4(C)[C@]3(C)CC[C@H]2C1(C)C	48 nM	28 nM
